Values of other authors, collected in PMC9762682, “Tocotrienols: Exciting Biological and Pharmacological Properties of Tocotrienols and Naturally Occurring Compounds, Part II” (Annals of clinical case reports, 2022).
Like-named read-outs stand apart in the source and are kept apart here. Marks after values point to notes of the source that are not given here.

What was measured:
T-cells (Jurkat) = tested on: T-cells (Jurkat); set-up: method as in PMID 29606130; value at effective dose: unit not given here
Hela cells = tested on: Hela cells; set-up: method as in PMID 29606130; value at effective dose: unit not given here; conditions: for effective dose / percentage of control at effective dose / value at effective dose: 48 h;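 on IC50: anti-proliferation of cancer cells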
Melanoma cells = tested on: Melanoma cells; set-up: method as in PMID 29606130
Lung cancer cells = tested on: Lung cancer cells; set-up: method as in PMID 29606130; value at effective dose: unit not given here
TNF-α [1] = conditions: LPS-induced macrophages of wild type (C57BL/6) control group
Pancreas cancer cells = tested on: Pancreas cancer cells; set-up: method as in PMID 29606130; value at effective dose: unit not given here; conditions: for effective dose / percentage of control at effective dose / value at effective dose: 48 h
Breast cancer cells = tested on: Breast cancer cells; set-up: method as in PMID 29606130; value at effective dose: unit not given here;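 on IC50: anti-proliferation of cancer cells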
Prostate cancer cells = tested on: Prostate cancer cells; set-up: method as in PMID 29606130; value at effective dose: scale not given here; conditions: for effective dose / percentage of control at effective dose / value at effective dose: 48 h;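 on IC50: anti-proliferation of cancer cells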
TNF-α [2] = conditions: LPS-induced macrophages of PPAR-α knockout female mice
B-Lymphocyte cells = tested on: B-Lymphocyte cells; set-up: method as in PMID 29606130; value at effective dose: unit not given here;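 on IC50: anti-proliferation of cancer cells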
Liver cancer cells = tested on: Liver cancer cells; set-up: method as in PMID 29606130; value at effective dose: unit not given here; conditions: for effective dose / percentage of control at effective dose / value at effective dose: 48 h
[3] = set-up: method as in ref 16 = [16]; PMID 27493840; doi:10.4172/2155-9880.1000434; 16. Qureshi AA , Khan DA , Silswal N , Saleem S , Qureshi N . Evaluation of pharmacokinetics and bioavailability of higher doses of δ-tocotrienol in healthy fed humans . J Clin Exp Cardiol . 2016; 7
[4] = set-up: method as in ref 14 = [14]; PMID 27493840; doi:10.4172/2155-9880.1000434; 14. Qureshi AA , Khan DA , Saleem S , Silswal N , Trias AM , Tan B , Pharmacokinetics and bioavailability of Annatto δ-tocotrienol in healthy fed subjects . J Clin Exp Cardiol . 2015; 6 : 11 . 10.417; conditions: for Elimination of Half-life time (t1/2) / Elimination rate constant (ke) / Plasma Peak Concentration (Cmax) / Time to achieve plasma peak (Tmax): healthy fed subjects
[5] = tested on: α-Tocopherol Transfer Protein (α-TTP); set-up: method as in PMID 11271854, PMID 8632210
[6] = plasma tocol after single 125 mg δ-tocotrienol dose
[7] = plasma tocol after single 250 mg δ-tocotrienol dose
[8] = plasma tocol after single 500 mg δ-tocotrienol dose

For `Cc1cc2nc3c(=O)[nH]c(=O)nc-3n(C[C@H](O)[C@H](O)[C@H](O)CO)c2cc1C` [(−) Riboflavin, Riboflavin], the effective dose (T-cells (Jurkat)) is listed as 20 µM, the “percentage of control at effective dose” value (T-cells (Jurkat)) is listed as 32% and the “value at effective dose” value (T-cells (Jurkat)) is listed as 142.0 ± 4.4. For the same molecule, the effective dose (Hela cells) was 40 µM, the “percentage of control at effective dose” value (Hela cells) was 64% and the “value at effective dose” value (Hela cells) was 21.0 ± 1.0. The effective dose (Melanoma cells) was 40 µM, the “percentage of control at effective dose” value (Melanoma cells) was 91% and the effective dose (Lung cancer cells) was 10 µM. The “percentage of control at IC50 dose” value (Lung cancer cells) was 28%, the “percentage of control at effective dose” value (Lung cancer cells) was 23% and the “value at effective dose” value (Lung cancer cells) was 7.7 ± 2.1. For the same molecule, the “effect on secretion of TNF-α” value (TNF-α [1]) was “inhibition”, the effective dose (Pancreas cancer cells) was 40 µM and the “percentage of control at effective dose” value (Pancreas cancer cells) was 67%. The “value at effective dose” value (Pancreas cancer cells) was 40.0 ± 2.0, the effective dose (Breast cancer cells) was 80 µM and the “percentage of control at effective dose” value (Breast cancer cells) was 61%. For the same molecule, the “value at effective dose” value (Breast cancer cells) was 12.7 ± 1.5, the IC50 (Prostate cancer cells) was 80 µM and the “percentage of control at IC50 dose” value (Prostate cancer cells) was 55%. For the same molecule, the effective dose (Prostate cancer cells) was 40 µM, the “percentage of control at effective dose” value (Prostate cancer cells) was 61% and the “value at effective dose” value (Prostate cancer cells) was 20.0 ± 2.0. The “effect on secretion of TNF-α” value (TNF-α [2]) was “activation”, the IC50 (B-Lymphocyte cells) was 80 µM and the effective dose (B-Lymphocyte cells) was 20 µM. The “percentage of control at IC50 dose” value (B-Lymphocyte cells) was 55%, the “percentage of control at effective dose” value (B-Lymphocyte cells) was 69% and the “value at effective dose” value (B-Lymphocyte cells) was 19.3 ± 3.1. The effective dose (Liver cancer cells) was 80 µM, the “percentage of control at effective dose” value (Liver cancer cells) was 91% and the “value at effective dose” value (Liver cancer cells) was 74.0 ± 2.0.

For `O=c1c(O)c(-c2ccc(O)c(O)c2)oc2cc(O)cc(O)c12` [Quercetin], the IC50 (T-cells (Jurkat)) is listed as 10 µM, the effective dose (T-cells (Jurkat)) is listed as 40 µM and the “percentage of control at IC50 dose” value (T-cells (Jurkat)) is listed as 45%. The “percentage of control at effective dose” value (T-cells (Jurkat)) was 81%, the “value at effective dose” value (T-cells (Jurkat)) was 409.3 ± 6.4 and the IC50 (Hela cells) was 10 µM. For the same molecule, the “percentage of control at IC50 dose” value (Hela cells) was 51%, the effective dose (Hela cells) was 40 µM and the “percentage of control at effective dose” value (Hela cells) was 38%. For the same molecule, the “value at effective dose” value (Hela cells) was 21.3 ± 1.5, the IC50 (Melanoma cells) was 10 µM and the effective dose (Melanoma cells) was 40 µM. For the same molecule, the “percentage of control at IC50 dose” value (Melanoma cells) was 54%, the “percentage of control at effective dose” value (Melanoma cells) was 21% and the IC50 (Lung cancer cells) was 10 µM. The effective dose (Lung cancer cells) was 20 µM, the “percentage of control at IC50 dose” value (Lung cancer cells) was 45% and the “percentage of control at effective dose” value (Lung cancer cells) was 36%. For the same molecule, the “value at effective dose” value (Lung cancer cells) was 11.7 ± 1.5, the “effect on secretion of TNF-α” value (TNF-α [1]) was “inhibition” and the IC50 (Pancreas cancer cells) was 40 µM. For the same molecule, the “percentage of control at IC50 dose” value (Pancreas cancer cells) was 45%, the effective dose (Pancreas cancer cells) was 40 µM and the “percentage of control at effective dose” value (Pancreas cancer cells) was 26%. The “value at effective dose” value (Pancreas cancer cells) was 11.7 ± 0.6, the IC50 (Breast cancer cells) was 10 µM and the effective dose (Breast cancer cells) was 20 µM. The “percentage of control at IC50 dose” value (Breast cancer cells) was 39%, the “percentage of control at effective dose” value (Breast cancer cells) was 27% and the “value at effective dose” value (Breast cancer cells) was 5.7 ± 0.6. For the same molecule, the IC50 (Prostate cancer cells) was 10 µM, the “percentage of control at IC50 dose” value (Prostate cancer cells) was 48% and the effective dose (Prostate cancer cells) was 20 µM. For the same molecule, the “percentage of control at effective dose” value (Prostate cancer cells) was 17%, the “value at effective dose” value (Prostate cancer cells) was 7.3 ± 1.2 and the “effect on secretion of TNF-α” value (TNF-α [2]) was “activation”. The IC50 (B-Lymphocyte cells) was 10 µM, the effective dose (B-Lymphocyte cells) was 10 µM and the “percentage of control at IC50 dose” value (B-Lymphocyte cells) was 29%. The “percentage of control at effective dose” value (B-Lymphocyte cells) was 29%, the “value at effective dose” value (B-Lymphocyte cells) was 8.0 ± 3.0 and the IC50 (Liver cancer cells) was 20 µM. The “percentage of control at IC50 dose” value (Liver cancer cells) was 32%, the effective dose (Liver cancer cells) was 40 µM and the “percentage of control at effective dose” value (Liver cancer cells) was 29%. The “value at effective dose” value (Liver cancer cells) was 24.0 ± 2.0.

In the case of `Cc1c(C)c2c(c(C)c1O)CC[C@@](C)(CCC[C@H](C)CCC[C@H](C)CCCC(C)C)O2` [α-Tocopherol], the plasma tocol level ([3]; 0 Hr., single dose 750 mg δ-tocotrienol) is given as 1644 ± 59 ng/mL, the plasma tocol level ([3]; 0 Hr., single dose 1000 mg δ-tocotrienol) is given as 1817 ± 80 ng/mL and the Tmax ([3]; 750 mg and 1000 mg doses of δ-tocotrienol) is given as 6 h. For the same molecule, the plasma tocol level ([3]; 1 hr., single dose 750 mg δ-tocotrienol) was 2080 ± 68 ng/mL, the plasma tocol level ([3]; 1 hr., single dose 1000 mg δ-tocotrienol) was 2025 ± 66 ng/mL and the plasma tocol level ([3]; 2 hr., single dose 750 mg δ-tocotrienol) was 2002 ± 91 ng/mL. The plasma tocol level ([3]; 2 hr., single dose 1000 mg δ-tocotrienol) was 2115 ± 92 ng/mL, the plasma tocol level ([3]; 4 hr., single dose 750 mg δ-tocotrienol) was 2231 ± 35 ng/mL and the plasma tocol level ([3]; 4 hr., single dose 1000 mg δ-tocotrienol) was 2228 ± 22 ng/mL. The plasma tocol level ([3]; 6 hr., single dose 750 mg δ-tocotrienol) was 2754 ± 84 ng/mL, the plasma tocol level ([3]; 6 hr., single dose 1000 mg δ-tocotrienol) was 2915 ± 35 ng/mL and the plasma tocol level ([3]; 8 hr., single dose 750 mg δ-tocotrienol) was 2406 ± 51 ng/mL. The plasma tocol level ([3]; 8 hr., single dose 1000 mg δ-tocotrienol) was 2139 ± 61 ng/mL, the “Total tocols (sum of 0-8 h)” value ([3]; single dose 1000 mg δ-tocotrienol) was 13239 ng/mL and the “time of appearance in the plasma” value ([4]; after δ-tocotrienol administration to well-fed subjects) was > 2 h. The “Elimination of Half-life time (t1/2)” value [4, 6] was 4.99 ± 069^a h, the “Elimination rate constant (ke)” value [4, 6] was 0.237 ± 0.217^a h-1 and the “Plasma Peak Concentration (Cmax)” value [4, 6] was 1822.00 ± 48.24^a ng/mL. For the same molecule, the “Time to achieve plasma peak (Tmax)” value [4, 6] was 6.00 h, the “Elimination of Half-life time (t1/2)” value [4, 7] was 4.91 ± 0.84^a h and the “Elimination rate constant (ke)” value [4, 7] was 0.084 ± 0.008^a,b h-1. For the same molecule, the “Plasma Peak Concentration (Cmax)” value [4, 7] was 1931.00 ± 92.54^b ng/mL, the “Time to achieve plasma peak (Tmax)” value [4, 7] was 6.00 h and the “Elimination of Half-life time (t1/2)” value [4, 8] was 3.58 ± 0.67^a h. The “Elimination rate constant (ke)” value [4, 8] was 0.081 ± 0.006^b h-1, the “Plasma Peak Concentration (Cmax)” value [4, 8] was 2188 ± 147.61^c ng/mL and the “Time to achieve plasma peak (Tmax)” value [4, 8] was 5.46 ± 0.93 h. The “α-TTP mediated secretion from the liver into the circulatory system (affinity with α-TTP)” value [5] was 100%.
